Results reported in US12551484B2, “Methods of treatment and/or prevention of major adverse cardiovascular events (MACE) with a combination of a BET bromodomain inhibitor and a sodium dependent glucose transport 2 inhibitor” (Resverlogix Corp., priority 2019, dated 2026).
Like-named read-outs stand apart in the source and are kept apart here.

Assays:
[1] = tested on: type 2 diabetes patients with low HDL cholesterol and a recent acute coronary syndrome (ACS); assay: BETonMACE Phase 3 trial (NCT02586155), post-hoc analysis by SGLT2 inhibitor use
Procedure: All patients received high intensity statin treatment as well as other evidence-based treatments.
Patients (n=2425) with ACS in the preceding 7 to 90 days, with type 2 diabetes and low HDL cholesterol (≤40 mg/dl for men, 45 mg/dl for women), receiving intensive or maximum-tolerated therapy with atorvastatin or rosuvastatin, were assigned in double-blind fashion to receive apabetalone 100 mg orally twice daily or matching placebo. […] The primary efficacy measure is time to first occurrence of cardiovascular death, non-fatal myocardial infarction, or stroke.
Those patients who received at least one dose of SGLT2 treatment after the date of the first incidence of event were censored as non-MACE events and the date of last contact was used as the censoring date.
The distributions of the endpoints within the apabetalone and placebo groups were compared using a two-sided log-rank test (LRT) with an alpha=0.05 level of significance. The cumulative incidence is shown as 1-KM (Kaplan-Meier) estimate for event rate.

[2] = tested on: type 2 diabetes patients; conditions: human, in vivo; cited from earlier work
[3] = tested on: type 2 diabetes patients; conditions: cited from earlier work
[4] = cardiovascular death, non-fatal myocardial infarction, or stroke, FIGS. 1-2
[5] = patients not treated with SGLT2 inhibitor, vs placebo (FIG. 2)
[6] = patients not treated with SGLT2 inhibitor, vs placebo (FIG. 5)
[7] = patients not treated with SGLT2 inhibitor, vs placebo (FIG. 8)
[8] = patients not treated with SGLT2 inhibitor, vs placebo (FIG. 11)
[9] = patients not treated with SGLT2 inhibitor, vs placebo (FIG. 14)
[10] = patients not treated with SGLT2 inhibitor, vs placebo (FIG. 17)

For COc1cc(OC)c2c(=O)[nH]c(-c3cc(C)c(OCCO)c(C)c3)nc2c1 [apabetalone, 2-(4-(2-hydroxyethoxy)-3,5-dimethylphenyl)-5,7-dimethoxyquinazolin-4(3H)-one], the “Kaplan-Meier estimated event rate, narrowly defined MACE” value ([1]; at 18 months, FIGS. 1-2) was 8.0%, the “primary end points (narrowly defined MACE), number in group” value [1, 4] was 111 and the “primary end points (narrowly defined MACE), percent of group” value [1, 4] was 10.5%. For the same compound, the “Hazard Ratio [HR], narrowly defined MACE” value [1, 5] was 0.84, the “reduction of number of patients having a narrowly defined MACE event at any given time” value [1, 5] was 16% and the “Hazard Ratio [HR], broadly defined MACE” value [1, 6] was 0.87. The “reduction of number of patients having a broadly defined MACE event at any given time” value [1, 6] was 13%, the “Hazard Ratio [HR], non-fatal myocardial infarction” value [1, 7] was 0.85 and the “reduction of number of patients having a non-fatal myocardial infarction event at any given time” value [1, 7] was 15%. For the same compound, the “Hazard Ratio [HR], cardiovascular death” value [1, 8] was 0.84, the “reduction of number of patients having a cardiovascular death event at any given time” value [1, 8] was 16% and the “Hazard Ratio [HR], hospitalization for cardiovascular diseases” value [1, 9] was 0.87. For the same compound, the “reduction of number of patients having a hospitalization for cardiovascular diseases event at any given time” value [1, 9] was 13%, the “Hazard Ratio [HR], hospitalization for congestive heart failure” value [1, 10] was 0.61 and the “reduction of number of patients having a hospitalization for congestive heart failure event at any given time” value [1, 10] was 39%.
In the case of Cc1ccc([C@@H]2O[C@H](CO)[C@@H](O)[C@H](O)[C@H]2O)cc1Cc1ccc(-c2ccc(F)cc2)s1 [Canaglifozin, canagliflozin], the “HR, narrowly defined MACE” value [2] is listed as 0.86, the “reduction of narrowly defined MACE” value [2] is listed as 14% and the “reductions in the individual MACE events” value [2] is listed as “did not reach statistical significance”.
In the case of OC[C@H]1O[C@@H](c2ccc(Cl)c(Cc3ccc(O[C@H]4CCOC4)cc3)c2)[C@H](O)[C@@H](O)[C@@H]1O [empaglifozin, empagliflozin], the “HR, broadly defined MACE” value ([3]; human, in vivo) is given as 0.89, the “HR, cardiovascular deaths” value ([3]; human, in vivo) is given as 0.62 and the “Hazard Ratio [HR], narrowly defined MACE” value ([3]; human, in vivo) is given as 0.86. For the same compound, the “reduction of broadly defined MACE” value ([3]; human, in vivo) was 11%, the “reduction of narrowly defined MACE” value ([3]; human, in vivo) was 14% and the “HR, individual MACE events” value ([3]; with the exception of cardiovascular deaths, did not show any reduction) was 1.0.
